# Source: PMC10983001, “Development of Cytotoxic GW7604-Zeise’s Salt Conjugates as Multitarget Compounds with Selectivity for Estrogen Receptor- Positive Tumor Cells” (Journal of Medicinal Chemistry, 2024)
# What was measured:
# human recombinant COX-1 = biological target: T1, human recombinant COX-1 (Homo sapiens, UniProt P23219); type: biochemical; settings: incubation 10 min
# T1 construct: purchased Cayman Chemicals
# Experimental: (§1) COX-1/2 inhibition was evaluated in an established assay on isolated isoenzymes. After incubation with the drugs (concentration: 20 μM) for 10 min, the remaining COX activity was measured by an enzyme-linked immunosorbent assay (ELISA).
# (§2) The incubation time of the compounds with the respective isoenzymes was exactly 10 min. The results are presented as the mean ± SEM of three independent experiments, with two replicates of each experiment. […] Graphs were drawn using GraphPad Prism 8.0.
# human recombinant COX-2 = biological target: T2, human recombinant COX-2 (Homo sapiens, UniProt P35354); type: biochemical; settings: incubation 10 min
# T2 construct: purchased Cayman Chemicals
# T2 sequence (P35354 18-604): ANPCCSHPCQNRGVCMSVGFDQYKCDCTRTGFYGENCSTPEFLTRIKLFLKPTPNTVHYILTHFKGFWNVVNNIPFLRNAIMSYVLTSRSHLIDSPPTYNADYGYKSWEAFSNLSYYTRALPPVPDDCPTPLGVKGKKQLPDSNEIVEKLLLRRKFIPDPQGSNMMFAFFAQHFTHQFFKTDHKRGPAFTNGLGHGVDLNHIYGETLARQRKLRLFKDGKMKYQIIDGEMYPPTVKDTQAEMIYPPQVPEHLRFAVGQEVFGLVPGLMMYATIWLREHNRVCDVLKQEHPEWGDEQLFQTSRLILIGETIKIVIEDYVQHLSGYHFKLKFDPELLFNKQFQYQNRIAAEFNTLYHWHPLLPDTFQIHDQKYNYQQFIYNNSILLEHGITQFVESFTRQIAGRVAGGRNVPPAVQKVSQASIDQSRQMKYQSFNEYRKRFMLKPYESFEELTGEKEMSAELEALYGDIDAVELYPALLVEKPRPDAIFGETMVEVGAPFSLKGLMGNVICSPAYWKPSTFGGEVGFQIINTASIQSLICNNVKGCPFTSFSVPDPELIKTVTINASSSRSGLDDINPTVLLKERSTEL
# Experimental: as §1, §2
# MCF-7 cells [1] = experiment: MTT assay of metabolic activity, MCF-7; type: cell-based, human; settings: 72 h, MTT; read-out: IC50 MCF-7
# Experimental: (§3) The GW7604-Alk-PtCl3 complexes (with exclusion of GW7604-Prop-PtCl3) were investigated for cytotoxic effects in SKBr3 (ER-negative, COX-2-positive, Figure 6), MCF-7 (ERα-positive, COX-negative, Figure 6), and noncancerous TSA-201 (human embryonal kidney) cells at concentrations of 10–30 μM using an established MTT (3-(4,5-dimethylthiazol-2-yl)-2,5-diphenyltetrazolium bromide) assay.[60],[69]
# (§4) After incubation for 72 h, the amounts of surviving, metabolically active cells were quantified based on their ability to transform the water-soluble yellow dye MTT to a purple formazan, which can be analyzed by UV–vis spectroscopy.
# (§5) The exponentially growing cells were seeded at a density of 1750 (MCF-7), 2000 (SKBr3), and 1250 (TSA-201) cells/well into clear flat-bottom 96-well plates in triplicate. Following 24 h of incubation at 37 °C in a humidified atmosphere (5% CO2/95% air), the compounds [freshly prepared stock solutions in DMF, diluted with DMEM to the desired concentration (final DMF concentration of 0.1% (v/v))] were added to reach the indicated concentrations. After another 72 h of incubation, the cellular metabolic activity was measured employing an MTT assay. By adding predissolved MTT reagent in PBS at a final concentration of 0.5 mg/mL, the metabolic activity can be determined via an enzymatic conversion to a purple formazan salt. After 3 h, the medium was aspirated, and 200 μL of DMSO was added to dissolve the formed formazan crystals. The absorbance was measured at 570 and 690 nm (turbidity assessment) using an EnSpire plate reader (PerkinElmer, Waltham, MA, USA). Solvent-treated cells without a compound served as the positive control. Metabolic activity was calculated by the following equation [drawing 1]
# TSA-201 cells = experiment: MTT assay of metabolic activity, noncancerous TSA-201; type: cell-based, human; settings: 72 h
# Experimental: as §3, §4, §5
# [2] = Stability in organic solutions (1H NMR); type: physicochemical; settings: for amount of free ligand: DMF-d7, rt
# Experimental: Furthermore, it needs to be clarified whether organic solvent molecules are capable of ligand exchange reactions at the PtCl3 unit and form corresponding reaction/degradation products of the GW7604-Alk-PtCl3 complexes. Therefore, ^1H NMR experiments were performed with noncoordinating [e.g., acetone-d6, methanol-d4] and coordinating [e.g., acetonitrile-d3 , DMF-d7, dimethyl sulfoxide-d6 (DMSO-d6)] solvents. It should further be assessed whether the solvents are suitable for preparing stock solutions for structural characterization or in vitro testing.
# The solutions (concentrations of 4.5–5.0 mM) were stored in NMR tubes at room temperature (rt) after being purged with argon.
# MCF-7 cells [3] = experiment: Hormonal (agonistic) activity: growth stimulation; type: cell-based, human; settings: MCF-7, low concentrations (<100 nM), data not shown
# Text: However, both agonistic properties and SERD effects can be excluded.
# [4] = test system: 5′-guanosine monophosphate (5′-GMP); experiment: Reaction with 5′-GMP (ESI-HR-MS); type: binding; settings: 100 μM, MeOH/water 80/20, 5 min
# Experimental: Thereto, GW7604-Pent-PtCl3 was incubated in a 1:1 ratio with 5′-GMP in a MeOH/water mixture [80/20, (v/v)], and the reaction products were identified by ESI-HR-MS after 5 min and 24 h.
# GW7604-Pent-PtCl3 dissolved in MeOH was combined with an aqueous solution of 5′-GMP (disodium salt) to get an [80/20 (v/v)] solution with a complex concentration of 1 mM and a complex/5′-GMP proportion of 1/1.1. The mixture was diluted %1/10 (v/v)] with MeOH/water [80/20 (v/v)], reaching a final complex concentration of 100 μM, and ESI-HR-MS spectra were recorded after 5 min and 24 h. The obtained spectra were analyzed with MestreNova v14.
# [5] = 30 μM, DMEM + 10% FCS, 37 °C, dark
# Experimental: After protein precipitation with ice-cold methanol (MeOH), the compounds remaining in solution were analyzed by HPLC and electrospray ionization high-resolution mass spectrometry (ESI-HR-MS).
# The solution was then incubated for 4 h at 37 °C in the dark. Proteins were precipitated upon addition of 33 mL of ice-cold MeOH, and the mixture was stored for 2 h at −20 °C. The supernatant was then separated by centrifugation (3000 rpm), collected, and dried by lyophilization. The lyophilizate was extracted three times with 5 mL of MeOH and finally dried under reduced pressure. The residue was taken up in 1 mL of HPLC-grade MeOH, and 30 μL thereof was analyzed by HPLC and ESI-HR-MS.
# T1 sequence (P23219 24-599): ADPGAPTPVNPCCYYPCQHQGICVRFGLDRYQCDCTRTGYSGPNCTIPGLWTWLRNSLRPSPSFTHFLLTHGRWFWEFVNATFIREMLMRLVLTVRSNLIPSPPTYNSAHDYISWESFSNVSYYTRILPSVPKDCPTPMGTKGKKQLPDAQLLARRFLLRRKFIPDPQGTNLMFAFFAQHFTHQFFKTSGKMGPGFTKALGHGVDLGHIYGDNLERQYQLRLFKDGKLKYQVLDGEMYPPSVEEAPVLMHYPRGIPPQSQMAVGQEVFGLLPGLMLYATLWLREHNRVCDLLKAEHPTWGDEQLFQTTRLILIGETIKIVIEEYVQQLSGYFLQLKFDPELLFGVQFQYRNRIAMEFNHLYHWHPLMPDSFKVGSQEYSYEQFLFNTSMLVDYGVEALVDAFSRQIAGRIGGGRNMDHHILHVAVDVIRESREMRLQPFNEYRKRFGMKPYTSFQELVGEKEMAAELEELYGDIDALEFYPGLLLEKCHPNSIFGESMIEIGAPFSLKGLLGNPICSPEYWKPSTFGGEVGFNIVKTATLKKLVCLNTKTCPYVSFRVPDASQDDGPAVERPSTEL
smiles,measurement,setting,value
"CCC(=C(c1ccc(O)cc1)c1ccc(C=CC(=O)OCCC[CH]2[CH2][Pt-]2([Cl])([Cl])[Cl])cc1)c1ccccc1.[K+] (mixture of isomers) [GW7604-Pent-PtCl3, Potassium trichlorido[η^2-(pent-4-en-1-yl (E)-3-(4-((E/Z)-1-(4-hydroxyphenyl)-2-phenylbut-1-en-1-yl)phenyl)acrylate)]platinate(II)]",IC50,human recombinant COX-1; 0.1–20 μM,1.7 µM
same,"concentration at which maximum activity is reached, COX-1",human recombinant COX-1,10 µM
same,IC50,human recombinant COX-2; 0.1–20 μM,1.82 µM
same,"concentration at which maximum activity is reached, COX-2",human recombinant COX-2,10 µM
same,IC50,MCF-7 cells [1],19.6 µM
same,IC50,"TSA-201 cells; MTT, read-out: IC50 TSA-210",> 30 µM
same,decrease of cell viability,"TSA-201 cells; TSA-201, 30 μM",about 20%
same,amount of free ligand,[2]; 9 days,about 33%
same,amount of free ligand,[2]; 14 days,about 40%
same,stability in DMSO-d6,"[2]; DMSO-d6, measured after 5 min / immediately after dissolution",only signals of the free GW7604-Pent ligand
same,time to complete degradation of the complex,"[2]; acetonitrile-d3, rt",≤ 23 days
same,complex that released the free ligand,"[2]; acetonitrile-d3, rt, 4 days",about 25%
same,complex that released the free ligand,"[2]; acetonitrile-d3, rt, 9 days",about 35%
same,agonistic effect: stimulation of growth,MCF-7 cells [3],neither stimulated the growth
same,adduct formation with 5′-GMP,[4],5′-GMP-platinum adducts were present
same,time to complete degradation in cell culture medium,[5],≤ 4 h
